Values joined by “and” are separate entries in the source; they are usually repeats but may differ in a detail not shown here. Equal values may be shown once.
Legend:
pSP73KB plasmid DNA = experiment: DNA interstrand cross-linking, denaturing agarose gel; assay type: biochemical; details: in the dark
Procedure: Interstrand cross-links: In this experiment, interstrand cross-linking efficiency of photoactivated 1 or 2, and of 5 or 6 in the dark was investigated using pSP73KB plasmid DNA. The DNA samples were treated with complexes 5 or 6 in the dark or with 1 or 2 under irradiation conditions and then were analysed by agarose gel electrophoresis under denaturing conditions. The interstrand cross-linked DNA appears in the autoradiogram as the top bands (Figure 11), which migrate more slowly than the single-strand DNA (the bottom bands). The frequencies of interstrand cross-links formed by photoactivated 1 or 2, and 5 and 6 (in the dark) were 23(±5), 19(±3), 9(±3) and 16(±2) %, respectively.
Figure 11 Agarose gel electrophoresis for quantification of DNA interstrand cross-linking. The interstrand cross-links (ICLs) by: A) 1 or 2 under irradiation conditions (420 nm light), and B) 5 or 6 in the dark were formed in linear pSP73KB plasmid DNA. A) Lane 1: control, non-modified DNA; lane 2: control, non-modified DNA, but irradiated; lanes 3–7: DNA modified by photoactivated 1 at rb=3.35×10^−5, 6.70×10^−5, 3.35×10^−4, 6.70×10^−4, 3.35×10^−3, respectively; lanes 8–12: DNA modified by photoactivated 2 at rb=3.70×10^−5, 7.40×10^−5, 3.70×10^−4, 7.40×10^−4, 3.70×10^−3, respectively. […]

A2780cis cells = experiment: SRB proliferation assay for non-light-sensitive complexes, A2780cis; assay type: cell-based, human; details: for Resistance factor: A2780cis vs A2780, SRB assay; for IC50: ambient light, 24 h exposure, 72 h recovery, SRB
Procedure: Cytotoxicity of platinum(II) precursors: To investigate the relationship between the Pt^IV diazidodihydroxido complexes and their Pt^II dichlorido analogues trans-[PtCl2(Am1)(Am2)] (where Am=amine), the cytotoxicities of complexes trans-[PtCl2(MA)(Py)] (5) and trans-[PtCl2(MA)(Tz)] (6) towards A2780 and its cisplatin resistant sub-line A2780cis were determined. The toxicity was not photoinduced, as the complexes are not photoactive. Complexes 5 and 6 are highly cytotoxic towards A2780 and A2780cis cells compared to the reported trans-Pt^II compounds.[18]–[22] Complex 5 is about three-times more cytotoxic than complex 6 towards A2780 cells. […]
Cell Culture and Proliferation Assay for Non-light-sensitive Complexes
The A2780 ovarian cell line was obtained from the ECACC (European Collection of Animal Cell Culture, Salisbury, United Kingdom). The cells were maintained in RPMI 1640 media, which was supplemented with 10% foetal calf serum, 1% L-glutamine, and 1% penicillin/streptomycin. All cells were grown at 310 K in an humidified atmosphere containing 5% CO2. Stock solutions of the Pt complexes were freshly prepared in DMSO to assist dissolution and then diluted into saline and medium (maximum final concentration of DMSO 1% and saline 6%). After plating 5000 A2780 cells per well on day 1, Pt complexes were added to the cancer cells on day 3 at concentrations ranging from 0.01 to 100 µM, depending on the preliminary activity data obtained in screening assays. Cells were exposed to the complexes for 24 h, washed with PBS, supplied with fresh medium, and allowed to grow for three doubling times (72 h), and then the protein content (proportional to cell survival) was measured using the sulforhodamine B (SRB) assay.[7] The standard errors are based on two independent experiments of three replicates each.[8]

pUC19 plasmid DNA = experiment: Unwinding of negatively supercoiled DNA, native agarose gel; assay type: biochemical; details: in the dark
Procedure: Unwinding of negatively supercoiled DNA: The unwinding induced in negatively supercoiled pUC19 plasmid DNA by treatment with photoactivated 1 or 2 or with 5 or 6 in the dark was measured. The degree of supercoiling was monitored using electrophoresis in native agarose gels[25] (Figure 12). The DNA unwinding angles for 1, 2, 5, and 6 were 22(±3)°, 20(±3)°, 19(±5)° and 23(±2)°, respectively.
Figure 12 Unwinding of negatively supercoiled […] plasmid DNA by: A) 1, and B) 2 under irradiation conditions (420 nm light); or C) 5, and D) 6 in the dark. The top bands in each panel correspond to the form of nicked plasmid and the bottom bands to the closed, negatively supercoiled plasmid. A) Lane 1: control, non-modified DNA; lane 2: irradiated control DNA; […]: DNA modified by photoactivated 1 at rb=0.016, 0.024, 0.032, 0.041 and 0.049, respectively. B) Lanes 1 and 10: control, non-modified DNA; lane 2: irradiated control DNA; lanes 3–9: DNA modified by photoactivated 2 at rb=0.008, 0.011, 0.020, 0.026, 0.035, 0.042 and 0.050, respectively. C) Lanes 1 and 12: control, non-modified DNA; lanes 2–11: DNA modified by 5 in the dark at rb=0.018, 0.027, 0.036, 0.045, 0.054, 0.063, 0.072, 0.081, 0.090 and 0.1, respectively. […]

HMGB1 protein = target: T1, HMGB1 protein (Homo sapiens, UniProt P09429); experiment: HMGB1 recognition of platinated 50 bp duplex, gel mobility shift assay; assay type: binding; details: 50 bp duplex modified in the dark
T1 sequence (P09429 1-215): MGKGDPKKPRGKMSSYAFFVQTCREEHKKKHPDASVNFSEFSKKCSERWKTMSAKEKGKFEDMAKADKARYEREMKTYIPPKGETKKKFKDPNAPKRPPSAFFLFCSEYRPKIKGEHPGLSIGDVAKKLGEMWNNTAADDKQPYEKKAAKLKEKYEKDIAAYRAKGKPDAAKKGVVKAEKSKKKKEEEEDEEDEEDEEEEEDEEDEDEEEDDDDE
Excerpt: HMGB1 protein recognition: The interactions of high mobility group protein B1 (HMGB1) with a 50 bp duplex DNA adducts formed by 1 or 2 under irradiation conditions and 5 or 6 in the dark were investigated using a gel mobility shift assay.
Figure 13 Recognition by HMGB1 protein of platinated DNA. Affinity of full-length HMGB1 to non-modified (control) DNA (lanes 1 and 2) or DNA modified by cisplatin (7) in the dark (lanes 3 and 4), 5 in the dark (lanes 5 and 6), 6 in the dark (lanes 7 and 8), photoactivated 1 (420 nm light, lanes 9 and 10) or photoactivated 2 (420 nm light, lanes 11 and 12). Lanes 1, 3, 5, 7, 9, 11, no protein added; lanes 2, 4, 6, 8, 10, 12, 700 ng HMGB1 added.

Row | Compound | Interstrand cross-link (pSP73KB plasmid DNA) | Resistance factor (A2780cis cells) | IC50 (A2780cis cells) [µM] | Unwinding angle (pUC19 plasmid DNA) | HMGB1 protein recognition (HMGB1 protein)
1 | C[NH2+][Pt@SP3-2]([Cl])([Cl])[n+]1ccccc1 [Complex 5, trans-[PtCl2(MA)(Py)]] | 9(±3) % and 9±3% | 1.25 | 3 ± 0.7 | 19(±5) ° and 19±5 ° | no detectable binding and no
2 | C[NH2+][Pt@SP3-2]([Cl])([Cl])[n+]1ccsc1 [Complex 6, trans-[PtCl2(MA)(Tz)]] | 16(±2) % and 16±2% | 1.0 | 6.8 ± 0.9 | 23(±2) ° and 23±2 ° | no detectable binding and no

— article PMC4280898, “Diazido Mixed-Amine Platinum(IV) Anticancer Complexes Activatable by Visible-Light Form Novel DNA Adducts” (Chemistry (Weinheim an Der Bergstrasse, Germany), 2013)
